According to PMC3085635 (Bioorganic & medicinal chemistry letters, 2011):
“And” between values parts separate entries of the source, which are not always exact repeats. Equal values may be shown once.

Legend:
[1] = molecular target: HIV-1 integrase (IN), 3′-processing (Human immunodeficiency virus type 1 group M subtype B, UniProt P12497); assay: biochemical
[2] = molecular target: HIV-1 integrase (IN), strand transfer, wild-type (Human immunodeficiency virus type 1 group M subtype B, UniProt P12497); assay: biochemical; details: Strand transfer IC50, in vitro IN assays as described in reference [4]
[3] = tested on: HIV-1 integrase Y143R mutant; assay type: biochemical
[4] = tested on: HIV-1 integrase N155H mutant; assay type: biochemical
[5] = tested on: HIV-1 vector with G140S/Q148H integrase; assay type: cell-based; details: antiviral, mutant vector in cultured cells
[6] = tested on: HIV-1 vector with Y143R integrase; assay type: cell-based; details: antiviral, cultured cells
[7] = tested on: HIV-1 vector with N155H integrase; assay type: cell-based; details: antiviral, cultured cells
[8] = tested on: cultured cells
[9] = 3′-Processing IC50, in vitro IN assays as described in reference [4]

O=C1c2c(c3n(c(=O)c2O)CCCCC3)C(=O)N1Cc1ccccc1 [4c-5]
IC50 [1, 9]: > 111 µM
IC50 [2]: > 111 µM

O=C1c2ccc(O)c(O)c2C(=O)N1Cc1ccc(F)cc1 [3-2, reference compound]
IC50 [1, 9]: 8 ± 3 µM

O=C1c2c(c3n(c(=O)c2O)CCCCC3)C(=O)N1Cc1ccc(F)c(F)c1 [4c-3]
IC50 [1, 9]: > 111 µM

O=C1c2ccc(O)c(O)c2C(=O)N1Cc1ccc(F)c(F)c1 [3-3, reference compound]
IC50 [1, 9]: 27 ± 1 µM

O=C1c2c(c3n(c(=O)c2O)CCCCCC3)C(=O)N1Cc1ccc(F)c(Cl)c1 [4d-1]
IC50 [1, 9]: > 111 µM

O=C1c2c(c3n(c(=O)c2O)CCCCC3)C(=O)N1Cc1ccc(F)cc1 [4c-2]
IC50 [1, 9]: > 111 µM

O=C1c2c(c3n(c(=O)c2O)CCCCC3)C(=O)N1Cc1cccc(Cl)c1F [4c-4]
IC50 [1, 9]: > 111 µM

O=C1c2ccc(O)c(O)c2C(=O)N1Cc1cccc2ccccc12 [3-6]
IC50 [1, 9]: 150 ± 36 µM
IC50 [2]: 0.7 µM and 0.72 µM

O=C1c2c(c3n(c(=O)c2O)CCCC3)C(=O)N1Cc1ccc(F)c(Cl)c1 [4b-1]
fold less sensitive than Raltegravir to the Y143R mutation [3]: more than 10 fold
fold less sensitive than Raltegravir to the N155H mutation [4]: more than 2 fold
times less sensitive than Raltegravir to the G140S/Q148H mutation [5]: 200 times
fold lower loss of potency compared to Raltegravir, Y143R vector [6]: 10 fold
fold lower loss of potency compared to Raltegravir, N155H vector [7]: 10 fold
cytotoxicity fold lower than 3-1 [8]: 30 fold
IC50 ([1]; 3′-P IC50, metal cofactor Mg2+): > 111 µM
IC50 [1, 9]: > 111 µM

O=C1c2c(c3n(c(=O)c2O)CCCCC3)C(=O)N1Cc1ccc(F)c(Cl)c1 [4c-1]
IC50 [1, 9]: > 111 µM

O=C1c2c(c3n(c(=O)c2O)CCC3)C(=O)N1Cc1ccc(F)c(Cl)c1 [4a-1]
IC50 [1, 9]: > 111 µM

O=C1c2ccc(O)c(O)c2C(=O)N1Cc1ccccc1 [3-5]
IC50 [1, 9]: 72 ± 23 µM
IC50 [2]: 0.4 µM and 0.39 µM

O=C1c2ccc(O)c(O)c2C(=O)N1Cc1ccc(F)c(Cl)c1 [3-1, reference compound]
IC50 [1, 9]: 14 ± 3 µM
IC50 [2]: 0.17 ± 0.06 µM

O=C1c2c(c3n(c(=O)c2O)CCCCC3)C(=O)N1Cc1cccc2ccccc12 [4c-6]
IC50 [1, 9]: > 111 µM

O=C1c2ccc(O)c(O)c2C(=O)N1Cc1cccc(Cl)c1F [3-4, reference compound]
IC50 [1, 9]: 25 ± 16 µM
